In patent publication US9409917B2, “Heterocyclic amide derivatives as P2X7 receptor antagonists” (ACTELION PHARMACEUTICALS LTD., priority 2012, dated 2016) one finds IC50 data, which are given here for 35 molecules.

human recombinant P2X7 receptor, sequence (Q99572 whole entry): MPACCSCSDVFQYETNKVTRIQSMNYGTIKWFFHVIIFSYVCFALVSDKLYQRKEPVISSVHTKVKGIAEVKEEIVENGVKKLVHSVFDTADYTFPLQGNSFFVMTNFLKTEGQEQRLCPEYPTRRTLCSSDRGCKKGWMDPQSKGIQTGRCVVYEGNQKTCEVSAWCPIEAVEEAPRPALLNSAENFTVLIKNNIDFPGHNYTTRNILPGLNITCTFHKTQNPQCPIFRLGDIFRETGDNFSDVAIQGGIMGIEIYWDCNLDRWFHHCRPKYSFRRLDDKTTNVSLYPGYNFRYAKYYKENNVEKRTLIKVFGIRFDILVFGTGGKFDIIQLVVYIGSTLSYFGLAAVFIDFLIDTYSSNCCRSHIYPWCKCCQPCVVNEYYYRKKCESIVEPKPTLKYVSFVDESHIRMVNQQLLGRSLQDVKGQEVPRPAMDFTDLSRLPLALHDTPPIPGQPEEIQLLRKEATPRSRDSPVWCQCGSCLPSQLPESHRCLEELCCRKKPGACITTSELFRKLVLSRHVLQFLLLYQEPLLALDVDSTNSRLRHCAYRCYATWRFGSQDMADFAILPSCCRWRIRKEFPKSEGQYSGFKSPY

The first experiment has as its target human recombinant P2X7 receptor (Homo sapiens (Human), UniProt Q99572). The experiment can be described thus: YO-PRO assay: P2X7 receptor antagonistic activity (ATP-induced YO-PRO-1 uptake, FLIPR).
Conditions: not given
As usually defined, the IC50 is the midpoint of a concentration-inhibition curve. Consider `O=C(NC(CO)C1CCCCCC1)C1COc2ncccc21` (single isomer, unassigned) [Example 14, rac-2,3-Dihydro-furo[2,3-b]pyridine-3-carboxylic acid (1-cycloheptyl-2-hydroxy-ethyl)-amide], for which the IC50 is 117 nM. Same read-out and setting: for `O=C(NCc1c(Cl)cccc1CO)C1COc2ncccc21` (racemic) [Example 118, rac-2,3-Dihydro-furo[2,3-b]pyridine-3-carboxylic acid 2-chloro-6-hydroxymethyl-benzylamide] the value was 304 nM; for `O=C(NCc1ccc(Cl)cc1)C1COc2ncccc21` (racemic) [Example 46, rac-2,3-Dihydro-furo[2,3-b]pyridine-3-carboxylic acid 4-chloro-benzylamide], 795 nM; for `O=C(NCCc1ccc(Cl)cc1Cl)C1CCOc2ncccc21` (racemic) [Example 38, rac-3,4-Dihydro-2H-pyrano[2,3-b]pyridine-4-carboxylic acid [2-(2,4-dichloro-phenyl)-ethyl]-amide], 67.1 nM. Consider `COc1cc(Cl)cc(Cl)c1CNC(=O)C1COc2ncccc21` (racemic) [Example 26, rac-2,3-Dihydro-furo[2,3-b]pyridine-3-carboxylic acid 2,4-dichloro-6-methoxy-benzylamide], for which the IC50 came to 25.6 nM.

Regarding `O=C(NCc1c(Cl)cc(Cl)cc1OCCO)C1COc2ncccc21` (racemic) [Example 50, rac-2,3-Dihydro-furo[2,3-b]pyridine-3-carboxylic acid 2,4-dichloro-6-(2-hydroxy-ethoxy)-benzylamide], the half-inhibitory concentration (IC50) turned out to be 54.6 nM.

For `[2H]C([2H])([2H])c1cc(Cl)cc(Cl)c1CNC(=O)C1COc2ncccc21` (single isomer, unassigned) [Example 98, 2,3-Dihydro-furo[2,3-b]pyridine-3-carboxylic acid 2,4-dichloro-6-trideuteromethyl-benzylamide], the 50% inhibitory concentration (IC50) came to 1.8 nM.

For `CCc1cc(Cl)cc(Cl)c1CNC(=O)C1COc2ncccc21` (racemic) [Example 22, rac-2,3-Dihydro-furo[2,3-b]pyridine-3-carboxylic acid 2,4-dichloro-6-ethyl-benzylamide], the IC50 is 1.5 nM. On the same count and under the same terms, to `O=C(NC1CCc2cc(Cl)ccc21)C1COc2ncccc21` (single isomer, unassigned) [Example 99, rac-2,3-Dihydro-furo[2,3-b]pyridine-3-carboxylic acid (5-chloro-indan-1-yl)-amide] belongs 301 nM; to `COCc1cc(Cl)cc(Cl)c1CNC(=O)C1COc2ncccc21` (racemic) [Example 72, rac-2,3-Dihydro-furo[2,3-b]pyridine-3-carboxylic acid 2,4-dichloro-6-methoxymethyl-benzylamide], 14.6 nM.

As to `O=C(NCc1ccc(C(F)(F)F)cc1)C1CCOc2ncccc21` (racemic) [Example 36, rac-3,4-Dihydro-2H-pyrano[2,3-b]pyridine-4-carboxylic acid 4-trifluoromethyl-benzylamide], the half-maximal inhibitory concentration (IC50) is 334 nM. As to `[2H]C([2H])([2H])c1cc(Cl)cc(Cl)c1CNC(=O)C1COc2ncccc21` (single isomer, unassigned) [Example 97, 2,3-Dihydro-furo[2,3-b]pyridine-3-carboxylic acid 2,4-dichloro-6-trideuteromethyl-benzylamide], the IC50 amounted to 20 nM.

Turning to `O=C(NCc1ccc(Cl)cc1)C1CCOc2ncccc21` (racemic) [Example 35, rac-3,4-Dihydro-2H-pyrano[2,3-b]pyridine-4-carboxylic acid 4-chloro-benzylamide], the half-maximal inhibitory concentration (IC50) amounted to 475 nM. Still for that read-out and setting: for `O=C(NCc1c(Cl)cc(Cl)cc1C1CC1)C1COc2ncccc21` (racemic) [Example 21, rac-2,3-Dihydro-furo[2,3-b]pyridine-3-carboxylic acid 2,4-dichloro-6-cyclopropyl-benzylamide] the value was 12.9 nM. On the same count and under the same terms, for `O=C(NCc1ccc(OC(F)(F)F)c(F)c1)C1CCOc2ncccc21` (racemic) [Example 53, rac-3,4-Dihydro-2H-pyrano[2,3-b]pyridine-4-carboxylic acid 3-fluoro-4-trifluoromethoxy-benzylamide] the value was 1190 nM; for `O=C(NCc1c(Cl)cc(Cl)cc1CO)C1CCOc2ncccc21` (racemic) [Example 51, rac-3,4-Dihydro-2H-pyrano[2,3-b]pyridine-4-carboxylic acid 2,4-dichloro-6-hydroxymethyl-benzylamide], 5.6 nM; for `NC(=O)C1(NC(=O)C2COc3ncccc32)CCCC1` (racemic) [Example 63, rac-2,3-Dihydro-furo[2,3-b]pyridine-3-carboxylic acid (1-carbamoyl-cyclopentyl)-amide], 3850 nM. On to `O=C(NCc1ccc(Oc2ccccc2)cc1)C1CCOc2ncccc21` (racemic) [Example 33, rac-3,4-Dihydro-2H-pyrano[2,3-b]pyridine-4-carboxylic acid 4-phenoxy-benzylamide], for which the IC50 amounted to 255 nM. Turning to `Cc1cc(Cl)cc(Cl)c1CNC(=O)C1(F)COc2ncccc21` (racemic) [Example 11, rac-3-Fluoro-2,3-dihydro-furo[2,3-b]pyridine-3-carboxylic acid 2,4-dichloro-6-methyl-benzylamide], the half-inhibitory concentration (IC50) was determined as 4.8 nM. On the same count and under the same terms, for `O=C(NCc1ccc(Cl)cc1Cl)C1COc2ncccc21` (racemic) [Example 5, rac-2,3-Dihydro-furo[2,3-b]pyridine-3-carboxylic acid 2,4-dichloro-benzylamide] the value was 59.2 nM. The same measure, in the same setting: to `C=Cc1cc(Cl)cc(Cl)c1CNC(=O)C1COc2ncccc21` (racemic) [Example 23, rac-2,3-Dihydro-furo[2,3-b]pyridine-3-carboxylic acid 2,4-dichloro-6-vinyl-benzylamide] belongs 12.2 nM; to `O=C(NCc1c(F)cc(Cl)cc1Cl)C1COc2ncccc21` (racemic) [Example 15, rac-2,3-Dihydro-furo[2,3-b]pyridine-3-carboxylic acid 2,4-dichloro-6-fluoro-benzylamide], 66.8 nM.

The experiment is the same for the next values; noted with them: read-out: IC50 [nM], antagonistic activities with respect to the P2X7 receptor.
`O=C(N[C@H](CO)C1CCCCC1)[C@H]1CCOc2ncccc21` (mixture of isomers) [Example 8, (S)-3,4-Dihydro-2H-pyrano[2,3-b]pyridine-4-carboxylic acid ((S)-1-cyclohexyl-2-hydroxy-ethyl)-amide and (R)-3,4-Dihydro-2H-pyrano[2,3-b]pyridine-4-carboxylic acid ((S)-1-cyclohexyl-2-hydroxy-ethyl)-amide]: the half-inhibitory concentration (IC50) was determined as 127 nM. With “(S)-2,3-Dihydro-furo[2,3-b]pyridine-3-carboxylic acid (R)-indan-1-ylamide and (R)-2,3-Dihydro-furo[2,3-b]pyridine-3-carboxylic acid (R)-indan-1-ylamide [Example 69]”, the concentration for half-maximal inhibition (IC50) was found to be 400 nM.

Still in this experiment, the particulars now being: read-out: IC50 [nM], antagonistic activities with respect to the P2X7 receptor; HEK-293 cells expressing human recombinant P2X7 receptor; YO-PRO-1 fluorescence; ATP 250 μM, 90 minutes; highest concentration 10 μM.
Consider `O=C(NCC(c1cnc(C(F)(F)F)nc1)N1CCOCC1)C1COc2ncccc21` (centres unmarked) [Example 83, 2,3-Dihydro-furo[2,3-b]pyridine-3-carboxylic acid [2-morpholin-4-yl-2-(2-trifluoromethyl-pyrimidin-5-yl)-ethyl]-amide], for which the half-maximal inhibitory concentration (IC50) came out at 124 nM. Take `O=C(NCC(c1cnc(C(F)(F)F)nc1)N1CCOCC1)C1COc2ncccc21` (single isomer, unassigned) [Example 82, 2,3-Dihydro-furo[2,3-b]pyridine-3-carboxylic acid [2-morpholin-4-yl-2-(2-trifluoromethyl-pyrimidin-5-yl)-ethyl]-amide]: the IC50 was determined as 2230 nM.

On to `Cc1ccc(C(CNC(=O)C2COc3ncccc32)N2CCOCC2)cn1` (centres unmarked) [Example 90, 2,3-Dihydro-furo[2,3-b]pyridine-3-carboxylic acid [2-(6-methyl-pyridin-3-yl)-2-morpholin-4-yl-ethyl]-amide], for which the IC50 was determined as 1150 nM. On the same count and under the same terms, to `O=C(NCC(c1cnc(C(F)(F)F)nc1)N1CCC(F)(F)CC1)C1COc2ncccc21` (centres unmarked) [Example 62, 2,3-Dihydro-furo[2,3-b]pyridine-3-carboxylic acid [2-(4,4-difluoro-piperidin-1-yl)-2-(2-trifluoromethyl-pyrimidin-5-yl)-ethyl]-amide] belongs 46.9 nM; to `Cc1cc(Cl)cc(Cl)c1CNC(=O)C1CCOc2ncccc21` (single isomer, unassigned) [Example 18, 3,4-Dihydro-2H-pyrano[2,3-b]pyridine-4-carboxylic acid 2,4-dichloro-6-methyl-benzylamide], 1.6 nM; to `C[C@@H](NC(=O)C1COc2ncccc21)c1ccc(Cl)cc1Cl` (stereo partly drawn) [Example 71, 2,3-Dihydro-furo[2,3-b]pyridine-3-carboxylic acid [(R)-1-(2,4-dichloro-phenyl)-ethyl]-amide], 36.5 nM. The same measure, in the same setting: to `O=C(NCC(c1ccc(C(F)(F)F)nc1)N1CCOCC1)C1COc2ncccc21` (centres unmarked) [Example 92, 2,3-Dihydro-furo[2,3-b]pyridine-3-carboxylic acid [2-morpholin-4-yl-2-(6-trifluoromethyl-pyridin-3-yl)-ethyl]-amide] belongs 82.2 nM; to `C[C@@H](NC(=O)C1COc2ncccc21)c1ccc(Cl)cc1Cl` (stereo partly drawn) [Example 70, 2,3-Dihydro-furo[2,3-b]pyridine-3-carboxylic acid [(R)-1-(2,4-dichloro-phenyl)-ethyl]-amide], 110 nM. Same read-out and setting: to `NC(=O)C1CCCCC1NC(=O)C1COc2ncccc21` (centres unmarked) [Example 66, 2,3-Dihydro-furo[2,3-b]pyridine-3-carboxylic acid (2-carbamoyl-cyclohexyl)-amide] belongs 5880 nM; to `O=C(NCc1c(Cl)cc(Cl)cc1Br)C1COc2ncccc21` (single isomer, unassigned) [Example 79, 2,3-Dihydro-furo[2,3-b]pyridine-3-carboxylic acid 2-bromo-4,6-dichloro-benzylamide], 51.1 nM. In the case of `Cc1cc(Cl)cc(Cl)c1CNC(=O)C1CCOc2ncccc21` (single isomer, unassigned) [Example 17, 3,4-Dihydro-2H-pyrano[2,3-b]pyridine-4-carboxylic acid 2,4-dichloro-6-methyl-benzylamide], the IC50 was found to be 1.3 nM.
